The text below walks through data of PubChem BioAssay (NCI).

Each structure is given as a SMILES string. Where “and” joins values, the source holds several entries; their conditions need not be identical. Equal entries are not always repeated.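 These data come from cells grown in 96-well plates and exposed to compound for 48 hours at five concentrations. GI50: concentration for 50% inhibition of growth. The concentration for full growth arrest is given as TGI.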

The subject of one assay is MALME-3M melanoma. The assay is described as follows: growth of human tumour cells (NCI), 48 h.
As for `CCN(CC)c1ccc2nc3ccc(=[N+](CC)CC)cc-3oc2c1`, the GI50 is 0.115 µM and the TGI amounted to 0.628 µM.

For the compound `CN1CCN(c2c(F)cc(NC3=C(Cl)C(=O)c4ncccc4C3=O)cc2F)CC1`, the GI50 is 1.59 µM and the TGI is 2.97 µM.

On to `COc1cc2nnc3c4cccnc4[nH]c3c2cc1OC`, for which the GI50 was 7.54 µM and 2.28 µM; the TGI was 22.9 µM and 5.68 µM.

Regarding `O=NN(CCCl)C(=O)NC1CCC(CC(=O)O)CC1` (stereo not drawn), the TGI is greater than 100 µM.

Turning to `NNC(=O)C(=O)NN=C(C(Cl)(Cl)CO)C(Cl)(Cl)CO`, the TGI was 44.4 µM.

Compound `CCOC(=O)/C(=C\c1cccc(C)c1)C(C)=O` showed a TGI of 31.4 µM.

Compound `COc1ccc2ccccc2c1C1=NC(C)(C)CO1` had a TGI greater than 100 µM.

Consider `COC12C(COC(=O)NCCO)C3=C(C(=O)C(C)=C(N)C3=O)N1CC1NC12` (stereo not drawn), for which the GI50 is 45.3 µM; the TGI is 64 µM and 101 µM.

With `Nc1nccc(-c2c(-c3ccc(F)cc3)nn3cc(C(F)(F)F)ccc23)n1`, the GI50 is greater than 25 µM and the TGI was greater than 25 µM.

As to `O=C(CCCC(=O)Nc1ccc(Cl)cc1Cl)CC(=O)c1ccc2ccccc2c1`, the TGI is greater than 100 µM.

Another assay deals with OVCAR-4 ovarian. Briefly: growth of human tumour cells (NCI), 48 h.
For the compound `COC(=O)C1=C(C(=O)OC)C2(c3ccccc3)OC1(c1ccccc1)c1cc3ccccc3cc12`, the TGI was 3.5 µM.

The compound `CC1NOC(=O)C1N=Nc1ccc(Cl)cc1Cl` (stereo not drawn) had a TGI of 56.5 µM.

In the case of `Cc1cc(Cl)nc(N(CCNc2ccnc3cc(Cl)ccc23)Cc2ccco2)n1`, the GI50 was 1.67 µM and the TGI was 3.38 µM.

For `CCCCCCCCCCCC[C@@H](O)[C@H]1CC[C@H]([C@H](O)CC[C@H](O)[C@@H]2CC[C@@H](CCCCCCCC3=C[C@H](C)OC3=O)O2)O1`, the TGI is greater than 50 µM.

For `O=C(c1cccs1)c1c(C(F)(F)F)n([O-])c2cc(Cl)c(Cl)cc2[n+]1=O`, the GI50 is 1.97 µM and the TGI was 4.25 µM.

The compound `CCOC(=O)/C(=C/c1ccccn1)C(=O)c1ccccc1` came in with a TGI of 36.8 µM.

Turning to `C=CCN(CC=C)C(=O)c1cc(C)nc2c1c(=O)n(-c1ccccc1)c(=O)n2CCCN1CCN(c2ccccc2OC)CC1`, the GI50 is greater than 50 µM and the TGI is greater than 50 µM.

Take `COc1cc(-c2nccc3[nH]c(-c4ccc5cc[nH]c5c4)nc23)cc(OC)c1OC`: the GI50 was 0.0307 µM and the TGI was 17.1 µM.

For `COCCOC1=C(Cl)C(=O)c2ccccc2C1=O`, the GI50 was 2.17 µM and the TGI worked out at 4.68 µM.

On to `CCN(CC)c1ccc2nc3ccc(=[N+](CC)CC)cc-3oc2c1`, for which the GI50 was 0.0463 µM and the TGI is 1.28 µM.

In the case of `CN1CCN(c2c(F)cc(NC3=C(Cl)C(=O)c4ncccc4C3=O)cc2F)CC1`, the GI50 is 1.33 µM and the TGI turned out to be 2.66 µM.

`COc1cc2nnc3c4cccnc4[nH]c3c2cc1OC`: the GI50 was 1.95 µM and 1.6 µM; the TGI is 50 µM and > 100 µM.

Consider `O=NN(CCCl)C(=O)NC1CCC(CC(=O)O)CC1` (stereo not drawn), for which the TGI was greater than 100 µM.

Turning to `NNC(=O)C(=O)NN=C(C(Cl)(Cl)CO)C(Cl)(Cl)CO`, the TGI was greater than 100 µM.

The compound `CCOC(=O)/C(=C\c1cccc(C)c1)C(C)=O` yielded a TGI of 59.6 µM.

For `COc1ccc2ccccc2c1C1=NC(C)(C)CO1`, the TGI is greater than 100 µM.

For the compound `COC12C(COC(=O)NCCO)C3=C(C(=O)C(C)=C(N)C3=O)N1CC1NC12` (stereo not drawn), the GI50 was 53.2 µM and the TGI was 119 µM.

Regarding `Nc1nccc(-c2c(-c3ccc(F)cc3)nn3cc(C(F)(F)F)ccc23)n1`, the GI50 is greater than 25 µM and the TGI is greater than 25 µM.

The compound `O=C(CCCC(=O)Nc1ccc(Cl)cc1Cl)CC(=O)c1ccc2ccccc2c1` yielded a TGI greater than 100 µM.

The test system of the next assay is SF-295 CNS. The assay is described as follows: growth of human tumour cells (NCI), 48 h.
Take `COC(=O)C1=C(C(=O)OC)C2(c3ccccc3)OC1(c1ccccc1)c1cc3ccccc3cc12`: the TGI came to 19.8 µM.

`CC1NOC(=O)C1N=Nc1ccc(Cl)cc1Cl` (stereo not drawn) displayed a TGI of 68.6 µM.

As for `Cc1cc(Cl)nc(N(CCNc2ccnc3cc(Cl)ccc23)Cc2ccco2)n1`, the GI50 is 1.5 µM and the TGI was 3.01 µM.

Consider `CCCCCCCCCCCC[C@@H](O)[C@H]1CC[C@H]([C@H](O)CC[C@H](O)[C@@H]2CC[C@@H](CCCCCCCC3=C[C@H](C)OC3=O)O2)O1`, for which the GI50 is 2.4 µM and the TGI was greater than 50 µM.

Turning to `O=C(c1cccs1)c1c(C(F)(F)F)n([O-])c2cc(Cl)c(Cl)cc2[n+]1=O`, the GI50 is 0.51 µM and the TGI was 1.32 µM.

`CCOC(=O)/C(=C/c1ccccn1)C(=O)c1ccccc1` came in with a TGI of 27.6 µM.

For the compound `C=CCN(CC=C)C(=O)c1cc(C)nc2c1c(=O)n(-c1ccccc1)c(=O)n2CCCN1CCN(c2ccccc2OC)CC1`, the GI50 is greater than 50 µM and the TGI was greater than 50 µM.

For `COc1cc(-c2nccc3[nH]c(-c4ccc5cc[nH]c5c4)nc23)cc(OC)c1OC`, the GI50 is less than 0.01 µM and the TGI is less than 0.01 µM.

With `COCCOC1=C(Cl)C(=O)c2ccccc2C1=O`, the GI50 is 4.42 µM and the TGI was determined as 15.9 µM.

For `CCN(CC)c1ccc2nc3ccc(=[N+](CC)CC)cc-3oc2c1`, the GI50 was 0.28 µM.

Take `CN1CCN(c2c(F)cc(NC3=C(Cl)C(=O)c4ncccc4C3=O)cc2F)CC1`: the GI50 is 17.2 µM and the TGI is 33.5 µM.

`COc1cc2nnc3c4cccnc4[nH]c3c2cc1OC`: the GI50 was 9.72 µM and 2.43 µM; the TGI is 50 µM and 6.92 µM.

The compound `O=NN(CCCl)C(=O)NC1CCC(CC(=O)O)CC1` (stereo not drawn) had a TGI greater than 100 µM.

`NNC(=O)C(=O)NN=C(C(Cl)(Cl)CO)C(Cl)(Cl)CO` registered a TGI greater than 100 µM.

For the compound `CCOC(=O)/C(=C\c1cccc(C)c1)C(C)=O`, the TGI was 55.8 µM.

As for `COc1ccc2ccccc2c1C1=NC(C)(C)CO1`, the TGI was greater than 100 µM.

As to `COC12C(COC(=O)NCCO)C3=C(C(=O)C(C)=C(N)C3=O)N1CC1NC12` (stereo not drawn), the GI50 was 24.3 µM and the TGI was greater than 264 µM.

As for `Nc1nccc(-c2c(-c3ccc(F)cc3)nn3cc(C(F)(F)F)ccc23)n1`, the GI50 was greater than 25 µM and the TGI is greater than 25 µM.

Turning to `O=C(CCCC(=O)Nc1ccc(Cl)cc1Cl)CC(=O)c1ccc2ccccc2c1`, the TGI was greater than 100 µM.
